Active and inactive are the calls of the source. The rule behind the calls is not given here.
How the values were obtained:
[1] = target: T1, Protein cereblon/Cyclin-dependent kinase 2 (Homo sapiens, UniProt P24941+Q96SW2); assay: Protac activity at CRBN/CDK2 in human HL-60 cells assessed as induction of CDK2 degradation measured after 24 hrs by Western blot analysis relative to control; assay type: cell-based
[2] = target: T1, Protein cereblon/Cyclin-dependent kinase 2; assay: Protac activity at CRBN/CDK2 in human HL-60 cells assessed as induction of CDK2 degradation at 10 nM measured at 12 hrs by Western blot analysis; assay type: cell-based
[3] = target: T1, Protein cereblon/Cyclin-dependent kinase 2; assay: Protac activity at CRBN/CDK2 in human HL-60 cells assessed as induction of CDK2 degradation at 10 nM measured after 24 hrs in presence of CRBN ligand thalidomide by Western blot analysis; assay type: cell-based
[4] = target: T1, Protein cereblon/Cyclin-dependent kinase 2; assay: Protac activity at CRBN/CDK2 in human HL-60 cells assessed as induction of CDK2 degradation at 10 nM measured after 24 hrs in presence of CDK2 inhibitor FN-150 by Western blot analysis; assay type: cell-based
HL-60 [5] = assay: Induction of pro-differentiation of human HL-60 cells assessed as CD11b expression at 1 nM measured after 3 days by immunostaining-based flow cytometry (reference value: 8.32 to 10.55%); assay type: functional; conditions: time 3 day
HL-60 [6] = assay: Induction of pro-differentiation of human HL-60 cells assessed as CD11b expression at 4 nM measured after 3 days by immunostaining-based flow cytometry (reference value: 8.32 to 10.55%); assay type: functional; conditions: time 3 day
HL-60 [7] = assay: Induction of pro-differentiation of human HL-60 cells assessed as CD11b expression at 1 nM measured after 5 days by immunostaining-based flow cytometry (reference value: 10.08 to 10.33%); assay type: functional; conditions: time 5 day
HL-60 [8] = assay: Induction of pro-differentiation of human HL-60 cells assessed as CD11b expression at 2 nM measured after 5 days by immunostaining-based flow cytometry (reference value: 10.08 to 10.33%); assay type: functional; conditions: time 5 day
HL-60 [9] = assay: Induction of pro-differentiation of human HL-60 cells assessed as increase in CD11b expression at 6.25 nM measured after 5 days by immunostaining-based flow cytometry relative to control; assay type: functional; conditions: time 5 day
HL-60 [10] = assay: Induction of pro-differentiation of human HL-60 cells assessed as increase in CD11b expression at 6.25 nM measured after 5 days by immunostaining-based flow cytometry relative to 500 nM CPS2; assay type: functional; conditions: time 5 day
MV4-11 = assay: Antiproliferative activity against human MV4-11 cells measured after 1 to 3 days by CCK-8 assay; assay type: functional, cell-based
THP-1 = assay: Antiproliferative activity against human THP-1 cells measured after 1 to 3 days by CCK-8 assay; assay type: functional, cell-based
[11] = target: T1, Protein cereblon/Cyclin-dependent kinase 2; assay: Protac activity at CRBN/CDK2 in human HL-60 cells assessed as induction of CDK2 degradation measured after 3 days by Western blot analysis; assay type: cell-based
[12] = target: Protein cereblon/Cyclin-dependent kinase 4 (Homo sapiens, UniProt P11802+Q96SW2); assay: Protac activity at CRBN/CDK4 in human HL-60 cells assessed as induction of CDK4 degradation measured after 3 days by Western blot analysis; assay type: cell-based
Protein cereblon/Cyclin-dependent kinase 4, sequence (P11802 whole entry): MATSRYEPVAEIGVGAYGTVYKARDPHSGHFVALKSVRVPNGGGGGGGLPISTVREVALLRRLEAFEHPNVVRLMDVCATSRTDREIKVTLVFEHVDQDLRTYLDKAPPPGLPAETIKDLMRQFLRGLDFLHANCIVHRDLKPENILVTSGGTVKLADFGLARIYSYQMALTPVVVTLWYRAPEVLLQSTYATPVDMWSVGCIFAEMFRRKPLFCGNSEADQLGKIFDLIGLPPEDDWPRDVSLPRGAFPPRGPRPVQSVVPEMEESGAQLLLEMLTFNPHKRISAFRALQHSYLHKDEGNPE
Protein cereblon/Cyclin-dependent kinase 4, sequence (Q96SW2 whole entry): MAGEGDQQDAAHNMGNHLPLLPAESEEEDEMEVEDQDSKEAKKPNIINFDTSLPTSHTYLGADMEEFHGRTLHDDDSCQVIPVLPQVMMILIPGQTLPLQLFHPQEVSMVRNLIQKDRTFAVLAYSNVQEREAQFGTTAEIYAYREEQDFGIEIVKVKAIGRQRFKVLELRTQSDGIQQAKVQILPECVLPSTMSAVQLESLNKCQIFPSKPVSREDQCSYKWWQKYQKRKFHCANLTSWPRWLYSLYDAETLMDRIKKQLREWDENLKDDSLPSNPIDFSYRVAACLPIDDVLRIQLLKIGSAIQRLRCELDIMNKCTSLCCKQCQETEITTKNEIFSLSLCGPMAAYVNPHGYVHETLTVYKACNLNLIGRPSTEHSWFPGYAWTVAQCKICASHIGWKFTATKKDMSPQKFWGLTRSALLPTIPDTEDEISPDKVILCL

[13] = target: T2, Protein cereblon/Cyclin-dependent kinase 6 (Homo sapiens, UniProt Q00534+Q96SW2); assay: Protac activity at CRBN/CDK6 in human HL-60 cells assessed as induction of CDK6 degradation measured after 3 days by Western blot analysis; assay type: cell-based
Target sequence in this assay (Q00534 whole entry): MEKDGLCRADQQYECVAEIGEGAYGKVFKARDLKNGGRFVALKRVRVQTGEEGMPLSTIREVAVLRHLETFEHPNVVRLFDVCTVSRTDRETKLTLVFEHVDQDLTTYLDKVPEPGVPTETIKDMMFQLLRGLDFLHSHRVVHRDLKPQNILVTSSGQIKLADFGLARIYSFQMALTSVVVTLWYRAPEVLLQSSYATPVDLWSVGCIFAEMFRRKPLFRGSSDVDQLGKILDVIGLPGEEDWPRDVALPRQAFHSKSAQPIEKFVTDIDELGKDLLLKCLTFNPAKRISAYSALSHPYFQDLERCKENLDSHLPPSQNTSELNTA
Target sequence in this assay (Q96SW2 whole entry): as the sequence (Q96SW2 whole entry) above

[14] = target: Protein cereblon/Receptor-type tyrosine-protein kinase FLT3 (Homo sapiens, UniProt P36888+Q96SW2); assay: Protac activity at CRBN/FLT3-ITD in human HL-60 cells assessed as induction of FLT3 degradation measured after 3 days by Western blot analysis; assay type: cell-based
Protein cereblon/Receptor-type tyrosine-protein kinase FLT3, sequence (P36888 whole entry, looked up, change not shown): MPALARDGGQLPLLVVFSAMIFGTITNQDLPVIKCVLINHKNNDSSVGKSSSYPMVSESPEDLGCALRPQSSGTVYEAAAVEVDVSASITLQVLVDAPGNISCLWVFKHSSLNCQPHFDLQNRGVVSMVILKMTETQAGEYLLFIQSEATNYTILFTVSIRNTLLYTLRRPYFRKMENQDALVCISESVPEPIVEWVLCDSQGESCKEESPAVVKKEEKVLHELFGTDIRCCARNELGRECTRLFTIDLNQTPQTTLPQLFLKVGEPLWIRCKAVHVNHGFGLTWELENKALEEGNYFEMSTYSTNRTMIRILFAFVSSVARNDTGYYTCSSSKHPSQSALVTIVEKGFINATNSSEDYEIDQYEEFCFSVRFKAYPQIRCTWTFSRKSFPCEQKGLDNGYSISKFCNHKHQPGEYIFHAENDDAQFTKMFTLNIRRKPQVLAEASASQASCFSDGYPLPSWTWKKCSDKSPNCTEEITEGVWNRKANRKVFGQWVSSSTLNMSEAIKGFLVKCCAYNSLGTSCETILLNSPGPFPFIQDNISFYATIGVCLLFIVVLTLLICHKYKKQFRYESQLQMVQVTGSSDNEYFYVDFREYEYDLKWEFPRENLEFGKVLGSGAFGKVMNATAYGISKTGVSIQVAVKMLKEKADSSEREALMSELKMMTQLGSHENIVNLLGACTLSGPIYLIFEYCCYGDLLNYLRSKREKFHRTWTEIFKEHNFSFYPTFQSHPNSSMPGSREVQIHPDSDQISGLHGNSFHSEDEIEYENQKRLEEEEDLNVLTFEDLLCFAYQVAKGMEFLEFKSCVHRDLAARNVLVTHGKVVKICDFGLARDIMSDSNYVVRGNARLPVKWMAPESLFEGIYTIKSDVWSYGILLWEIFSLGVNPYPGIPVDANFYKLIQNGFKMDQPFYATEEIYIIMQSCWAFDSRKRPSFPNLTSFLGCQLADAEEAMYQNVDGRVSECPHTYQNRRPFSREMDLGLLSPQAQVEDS
Protein cereblon/Receptor-type tyrosine-protein kinase FLT3, sequence (Q96SW2 whole entry, looked up, change not shown): as the sequence (Q96SW2 whole entry) above

[15] = target: T2, Protein cereblon/Cyclin-dependent kinase 6; assay: Protac activity at CRBN/CDK6 in human MV4-11 cells assessed as induction of CDK6 degradation at 2 to 32 nM measured after 3 days by Western blot analysis; assay type: cell-based; conditions: dose 2-32 nM, time 3.0 day
Target sequence in this assay (Q00534 whole entry, looked up): as the sequence (Q00534 whole entry) above
Target sequence in this assay (Q96SW2 whole entry, looked up): as the sequence (Q96SW2 whole entry) above

[16] = tested on: Protein cereblon/Receptor-type tyrosine-protein kinase FLT3 (Homo sapiens), P36888+Q96SW2 [UNDEFINED MUTATION]; assay: Protac activity at CRBN/FLT3-ITD mutant in human Kasumi 1 cells assessed as induction of FLT3 degradation at 2 to 32 nM measured after 3 days by Western blot analysis; assay type: cell-based; conditions: dose 2-32 nM, time 3.0 day
Protein cereblon/Receptor-type tyrosine-protein kinase FLT3 (Homo sapiens), P36888+Q96SW2 [UNDEFINED MUTATION], sequence (P36888 whole entry, looked up, change not shown): as the sequence (P36888 whole entry, looked up, change not shown) above
Protein cereblon/Receptor-type tyrosine-protein kinase FLT3 (Homo sapiens), P36888+Q96SW2 [UNDEFINED MUTATION], sequence (Q96SW2 whole entry, looked up, change not shown): as the sequence (Q96SW2 whole entry) above

[17] = target: Protein cereblon/Cyclin-dependent kinase 9 (Homo sapiens, UniProt P50750+Q96SW2); assay: Protac activity at CRBN/CDK9 in human THP-1 cells assessed as induction of CDK9 degradation at 4 to 64 nM measured after 3 days by Western blot analysis; assay type: cell-based; conditions: dose 4-64 nM, time 3.0 day
Protein cereblon/Cyclin-dependent kinase 9, sequence (P50750 whole entry, looked up): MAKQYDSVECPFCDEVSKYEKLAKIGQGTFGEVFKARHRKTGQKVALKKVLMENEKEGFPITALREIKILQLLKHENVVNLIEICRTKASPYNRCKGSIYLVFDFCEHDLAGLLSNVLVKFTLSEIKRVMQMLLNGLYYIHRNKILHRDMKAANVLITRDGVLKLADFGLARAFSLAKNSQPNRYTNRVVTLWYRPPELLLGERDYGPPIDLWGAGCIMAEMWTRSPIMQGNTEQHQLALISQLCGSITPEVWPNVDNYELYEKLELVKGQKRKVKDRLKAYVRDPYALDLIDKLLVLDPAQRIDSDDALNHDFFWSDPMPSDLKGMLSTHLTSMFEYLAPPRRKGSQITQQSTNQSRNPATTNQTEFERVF
Protein cereblon/Cyclin-dependent kinase 9, sequence (Q96SW2 whole entry, looked up): as the sequence (Q96SW2 whole entry) above

[18] = tested on: Protein cereblon/Receptor-type tyrosine-protein kinase FLT3 (Homo sapiens), P36888+Q96SW2 [UNDEFINED MUTATION]; assay: Protac activity at CRBN/FLT3-ITD mutant in human THP-1 cells assessed as induction of FLT3 degradation at 4 to 64 nM measured after 3 days by Western blot analysis; assay type: cell-based; conditions: dose 4-64 nM, time 3.0 day
[19] = target: Protein cereblon/Cyclin-dependent kinase 1 (Homo sapiens) (UniProt P06493+Q96SW2); assay: Protac activity at CRBN/CDK1 in human THP-1 cells assessed as induction of CDK1 degradation at 4 to 64 nM measured after 3 days by Western blot analysis; assay type: cell-based; conditions: dose 4-64 nM, time 3.0 day
Protein cereblon/Cyclin-dependent kinase 1 (Homo sapiens), sequence (P06493 whole entry, looked up): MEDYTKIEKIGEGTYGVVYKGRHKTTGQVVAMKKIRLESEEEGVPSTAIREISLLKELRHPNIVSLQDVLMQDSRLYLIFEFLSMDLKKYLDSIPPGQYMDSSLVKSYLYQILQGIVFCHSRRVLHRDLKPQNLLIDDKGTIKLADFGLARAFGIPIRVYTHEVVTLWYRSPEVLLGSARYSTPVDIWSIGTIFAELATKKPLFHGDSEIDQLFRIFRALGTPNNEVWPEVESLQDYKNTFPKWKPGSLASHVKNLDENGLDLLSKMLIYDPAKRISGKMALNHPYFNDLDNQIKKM
Protein cereblon/Cyclin-dependent kinase 1 (Homo sapiens), sequence (Q96SW2 whole entry, looked up): as the sequence (Q96SW2 whole entry) above

[20] = target: Protein cereblon/Cyclin-dependent kinase 5 (Homo sapiens) (UniProt Q00535+Q96SW2); assay: Protac activity at CRBN/CDK5 in human MV4-11 cells assessed as induction of CDK5 degradation at 2 to 32 nM measured after 3 days by Western blot analysis; assay type: cell-based; conditions: dose 2-32 nM, time 3.0 day
Protein cereblon/Cyclin-dependent kinase 5 (Homo sapiens), sequence (Q00535 whole entry, looked up): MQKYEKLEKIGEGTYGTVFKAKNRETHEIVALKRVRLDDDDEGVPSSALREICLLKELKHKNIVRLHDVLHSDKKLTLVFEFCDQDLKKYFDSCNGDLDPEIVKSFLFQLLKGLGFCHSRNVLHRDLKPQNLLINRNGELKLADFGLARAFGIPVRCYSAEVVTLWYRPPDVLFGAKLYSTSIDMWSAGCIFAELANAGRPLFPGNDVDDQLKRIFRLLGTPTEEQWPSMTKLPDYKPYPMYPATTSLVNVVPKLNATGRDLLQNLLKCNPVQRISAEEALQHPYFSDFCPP
Protein cereblon/Cyclin-dependent kinase 5 (Homo sapiens), sequence (Q96SW2 whole entry, looked up): as the sequence (Q96SW2 whole entry) above

Question: With `O=C1CCC(N2C(=O)c3ccc(N4CCC(CN5CCN(Cc6ccc(NC(=O)c7n[nH]cc7Nc7ncnc8[nH]ccc78)cc6)CC5)CC4)cc3C2=O)C(=O)N1` (configuration not stated) as the molecule, how does the Emax [1] read?
Answer: 86.8%

Question: What about the Activity [2] of the same molecule?
Answer: Active

Question: What about the Activity [3] of the same molecule?
Answer: inactive

Question: And the Activity [4]?
Answer: inactive

Question: What about the Activity (HL-60 [5]) of the same molecule?
Answer: 23.74%

Question: What about the Activity (HL-60 [6]) of the same molecule?
Answer: 43.94%

Question: What about the Activity (HL-60 [7]) of the same molecule?
Answer: 29.85%

Question: What about the Activity (HL-60 [8]) of the same molecule?
Answer: 36.57%

Question: What about the “fold change (FC)” value (HL-60 [9]) of the same molecule?
Answer: 7.2

Question: What about the “fold change (FC)” value (HL-60 [10]) of the same molecule?
Answer: 2.1

Question: What about the IC50 (MV4-11) of the same molecule?
Answer: 2.9 nM

Question: And the IC50 (THP-1)?
Answer: 37.1 nM

Question: What about the DC50 [11] of the same molecule?
Answer: 4.74 nM

Question: What about the DC50 [12] of the same molecule?
Answer: 4.41 nM

Question: And the DC50 [13]?
Answer: 2.71 nM

Question: What about the DC50 [14] of the same molecule?
Answer: 5.69 nM

Question: What about the Activity [15] of the same molecule?
Answer: Active

Question: And the Activity [16]?
Answer: Active

Question: And the Activity [17]?
Answer: Active

Question: What about the Activity [18] of the same molecule?
Answer: Active

Question: What about the Activity [19] of the same molecule?
Answer: inactive

Question: What about the Activity [20] of the same molecule?
Answer: inactive

Reference: ChEMBL document CHEMBL5579829, “Discovery of a potent CDKs/FLT3 PROTAC with enhanced differentiation and proliferation inhibition for AML” (Eur J Med Chem, 2024)
